Source: patent US20180028480A1, “METHODS OF REDUCING OR PREVENTING OXIDATIVE MODIFICATION OF MEMBRANE POLYUNSATURATED FATTY ACIDS” (Amarin Pharmaceuticals Ireland Limited, priority 2015, published 2018)

Tested on: sdLDL
Assay: Copper-induced sdLDL oxidation (Example 7)
Assay type: biochemical, human
Conditions: 10.0 μM; copper-induced oxidation 1 hour
Description: An experiment to study the antioxidant effect of EPA in small dense LDL (“sdLDL”) was performed. sdLDL was isolated from human plasma by isopycnic centrifugation, separated into test samples of 200 μg/mL, and incubated at 37° C. for 30 min in the absence (vehicle) or presence of EPA, fenofibrate, niacin, or gemfibrozil, each at 10.0 μM. All samples, with the exception of non-oxidized sdLDL controls, were subjected to copper-induced oxidation for 1 hour. Human umbilical vein endothelial cells (HUVECs) were incubated with the various sdLDL samples, stimulated with calcium, and monitored for nitric oxide (NO) and peroxynitrite (ONOO^−) release using nanosensor technology.

SMILES: CC/C=C\C/C=C\C/C=C\C/C=C\C/C=C\CCCC(=O)O [EPA, cis-5,8,11,14,17-Eicosapentaenoic acid]
- reduction of sdLDL oxidation compared to vehicle treatment: > 90%
